# Molecular target: T1, Estrogen receptor (Homo sapiens, UniProt P03372)
# T1 sequence (P03372 whole entry): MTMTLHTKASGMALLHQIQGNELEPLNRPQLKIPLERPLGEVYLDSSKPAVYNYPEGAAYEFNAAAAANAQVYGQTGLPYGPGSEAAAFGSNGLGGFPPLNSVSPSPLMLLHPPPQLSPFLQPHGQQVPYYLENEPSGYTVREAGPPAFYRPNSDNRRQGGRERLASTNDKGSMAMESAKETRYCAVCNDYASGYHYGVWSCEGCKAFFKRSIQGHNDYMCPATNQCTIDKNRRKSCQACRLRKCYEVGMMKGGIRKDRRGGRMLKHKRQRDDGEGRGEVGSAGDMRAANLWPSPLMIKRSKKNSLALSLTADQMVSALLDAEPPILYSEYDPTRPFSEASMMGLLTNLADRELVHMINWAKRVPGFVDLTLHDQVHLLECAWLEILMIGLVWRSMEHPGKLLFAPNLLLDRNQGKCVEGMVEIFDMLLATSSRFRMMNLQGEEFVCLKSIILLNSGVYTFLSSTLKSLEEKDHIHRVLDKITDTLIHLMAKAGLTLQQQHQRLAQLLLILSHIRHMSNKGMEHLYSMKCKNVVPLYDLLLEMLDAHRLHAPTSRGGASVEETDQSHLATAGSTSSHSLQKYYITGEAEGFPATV
# Test: Inhibition of estrogen receptor
row,IC50 [µM],SMILES
1,> 10,"CC1=NC(C)=C(C(=O)OC(C)(C)C)[C@H](c2ccc(F)cc2Cl)C1C#N (stereo partly drawn) [tert-Butyl (4R)-4-(2-Chloro-4-fluorophenyl)-5-cyano-2,6-dimethyl-1,4-dihydropyridine-3-carboxylate]"
2,> 10,"CCCC1=C(C(=O)OCC)[C@H](c2ccnc3ccccc23)C(C#N)C(C)=N1 (stereo partly drawn) [(R)-Ethyl 5-Cyano-6-methyl-2-propyl-4-quinolin-4-yl-1,4-dihydropyridine-3-carboxylate]"
